Like-named read-outs stand apart in the source and are kept apart here.
Key:
[1] = tested on: Mycosphaerella graminicola; test: Example G: in vivo test on Mycosphaerella graminicola (wheat leaf blotch disease); conditions: Zymoseptoria tritici, wheat plants sprayed 24 hours before inoculation, scored after 21 to 28 days, read-out: % Wirkungsgrad
Description: In Vivo Test on Mycosphaerella Graminicola (Wheat Leaf Blotch Disease) An aqueous suspension of the active substance was prepared by homogenization of a mixture of acetone/Tween/dimethyl sulphoxide and subsequent dilution with water to the desired concentration. Wheat plants (variety: Scipion) are sown in cultivation dishes on a peat-pozzolanic earth substrate (50/50) at 12° C. and sprayed at the first-leaf stage (10 cm size) with the aqueous suspension described above. As a control, plants are sprayed with an aqueous solution with no active substance. After 24 hours the plants are inoculated by spraying with an aqueous suspension of Mycosphaerella graminicola spores (500,000 spores per ml). The spores are derived from a 7 day-old culture. […] After 21 to 28 days they are scored in comparison with the control plants.

[2] = physchem
[3] = tested on: Botrytis cinerea; test: Example B: in vivo test on Botrytis cinerea (grey mould on cucumbers); conditions: cucumber plants sprayed 24 hours before inoculation, scored after 5-7 days, read-out: % Wirkungsgrad
Description: In Vivo Test on Botrytis Cinerea (Grey Mould on Cucumbers) An aqueous suspension of the active substance was prepared by homogenization of a mixture of acetone/Tween/dimethyl sulphoxide and subsequent dilution with water to the desired concentration. Cucumber plants (variety: Vert petit de Paris) are sown in cultivation dishes on a peat-pozzolanic earth substrate (50/50) at 18-20° C. and sprayed at the cotyledon stage Z11 with the aqueous suspension described above. As a control, plants are sprayed with an aqueous solution with no active substance. […] The spores are derived from a 15 day-old culture which are suspended in the following nutrient solution: • 20 g/l gelatine • 50 g/l D-fructose • 2 g/l NH4NO3 • 1 g/l KH2PO4 The inoculated cucumber plants are kept for 5-7 days in a climatic chamber at […] After 5-7 days they are scored in comparison with the control plants.

[4] = tested on: Sphaerotheca fuliginea; test: Example D: in vivo test on Sphaerotheca fuliginea (powdery mildew on cucumber); conditions: Podosphaera fuliginea, 288 h, cucumber plants sprayed 24 hours before inoculation, scored after 12 days, read-out: % Wirkungsgrad
Method in brief: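 Scoring took place 12 days after spore inoculation (100,000 spores/ml, at ca. 20/25° C., 60/70% RH) and was made against plants sprayed without active substance. Inoculation followed by 24 hours a spray of water-diluted acetone/Tween/DMSO compound suspension onto Z10 cotyledon-stage cucumbers.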

[5] = tested on: Rhizoctonia solani; test: Example W: in vivo test on Rhizoctonia solani (sheath blight in rice/protective); conditions: 96 h, rice, protective, 250 ppm active substance, assessed 4 days after inoculation, read-out: % Activity level
Description: Solvent: 28.5 parts by weight acetone Emulsifier: 1.5 parts by weight alkylaryl polyglycol ethers For the preparation of a suitable active substance preparation, 1 part by weight of active substance is mixed with the stated quantities of solvent and emulsifier and the concentrate is diluted to the desired concentration with water. For the testing for protective activity, young rice plants are sprayed with the active substance preparation at the stated application dosage. One day after the treatment, the plants are inoculated with hyphae of Rhizoctonia solani. […] 4 days after the inoculation, the assessment takes place.

[6] = tested on: Fusarium graminearum; test: microbe, parasite or virus in culture; type: cell-based
[7] = tested on: Aspergillus parasiticus; test: microbe, parasite or virus in culture; type: cell-based; conditions: 168 h
[8] = tested on: Sphaerotheca fuliginea; test: Example L: in vivo test on Sphaerotheca fuliginea (powdery mildew on cucumber/protective); conditions: Podosphaera fuliginea, 168 h, cucumber, protective, assessment 7 days after inoculation, read-out: % Wirkungsgrad
Method in brief: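 Young cucumber plants sprayed at stated dosage with compound in DMF/alkylaryl polyglycol ether emulsifier diluted in water; inoculated with S. fuliginea spores one day later. Kept in greenhouse at 70% relative humidity, 23° C; protective activity assessed 7 days after inoculation.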

[9] = tested on: Alternaria solani; test: Example M: in vivo test on Alternaria solani (leaf blotch disease/tomato/protective); conditions: 168 h, tomato, protective, 500 ppm active substance, assessed 7 days after inoculation, read-out: % Wirkungsgrad (activity level)
Method in brief: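 Alternaria solani infection on tomato scored 7 days post-inoculation. Before inoculation, young plants received a protective spray at the stated application dose; formulation was compound mixed with N,N-dimethylformamide and emulsifier, water-diluted.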

[10] = tested on: Fusarium proliferatum; test: Example I: production of fumonisin FB1 by Fusarium proliferatum (microtitre plates); type: cell-based; conditions: 120 h
[11] = tested on: Botrytis cinerea; test: Example P: in vivo test on Botrytis cinerea (gray mould on bean/protective); conditions: 48 h, bean, protective, 250 ppm active substance, assessed 2 days after inoculation, read-out: % Wirkungsgrad (activity level)
Method in brief: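 Infection blotch size on leaves was scored 2 days after placing 2 Botrytis-colonised agar pieces per leaf. Inoculation followed drying of a protective spray applied to young plants at the stated dosage. Spray was prepared by diluting compound with solvent and alkylaryl polyglycol ether emulsifier in water.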

[12] = tested on: Fusarium graminearum; test: whole plant or invertebrate; type: in vivo; conditions: in Hordeum vulgare, 120 h, read-out: % Wirkungsgrad (activity level)
[13] = tested on: Leptosphaeria nodorum; test: Example Q: in vivo test on Leptosphaeria nodorum (glume blotch in wheat/protective); conditions: Parastagonospora nodorum, 192 h, wheat, protective, assessment 8 days after inoculation, read-out: % Wirkungsgrad
Description: (§1) Solvent: 49 parts by weight N,N-dimethylacetamide Emulsifier: 1 part by weight alkylaryl polyglycol ethers For the preparation of a suitable active substance preparation, 1 part by weight of active substance is mixed with the stated quantities of solvent and emulsifier and the concentrate is diluted to the desired concentration with water. For the testing for protective activity, young plants are sprayed with the active substance preparation at the stated application dosage. After drying of the spray coating, the plants are sprayed with spores with a spore suspension of Leptosphaeria nodorum. […] 8 days after the inoculation, the assessment takes place.

[14] = tested on: Fusarium nivale (var. majus); test: whole plant or invertebrate; type: in vivo; conditions: Microdochium nivale, in Triticum aestivum, 120 h, read-out: % Wirkungsgrad (activity level)
[15] = tested on: Venturia inaequalis; test: Example O: in vivo test on Venturia inaequalis (apple scab/protective); conditions: 240 h, protective, assessment 10 days after inoculation, read-out: % Wirkungsgrad
Method in brief: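 Young plants received a preventive spray of compound formulated as an emulsifier-containing aqueous dilution at the given application rate, then were inoculated with apple scab fungus. Disease was scored 10 days post-inoculation.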

[16] = tested on: Plasmopara viticola; test: Example N: in vivo test on Plasmopara viticola (downy mildew, vine/protective); conditions: 144 h, vine, protective, assessment 6 days after inoculation, read-out: % Wirkungsgrad
Description: Emulsifier: 1 part by weight alkylaryl polyglycol ethers For the preparation of a suitable active substance preparation, 1 part by weight of active substance is mixed with the stated quantities of solvent and emulsifier and the concentrate is diluted to the desired concentration with water. For the testing for protective activity, young plants are sprayed with the active substance preparation at the stated application dosage. […] The plants are then moistened and placed in an incubation cabin for 1 day. 6 days after the inoculation, the assessment takes place.

[17] = tested on: Septoria tritici; test: Example R: in vivo test on Septoria tritici (leaf blotch in wheat/protective); conditions: Zymoseptoria tritici, 504 h, wheat, protective, 1000 ppm active substance, assessed 21 days after inoculation, read-out: % Wirkungsgrad (activity level)
Description: as §1, with “with” for “with spores with”, “Septoria tritici.” for “Leptosphaeria nodorum.”, “21” for “8”

[18] = LogPA (logP of the stated pure compound or, in a mixture, of the main isomer, 1-substituted 3-aryl-1H-pyrazole)
[19] = 72 h, read-out: % Inhibition des Pilzwachstums bei 50 μM
[20] = 168 h, read-out: % Inhibition der DON/AcDON produktion bei 50 μM
[21] = 50 μM, 7 days at 20° C., read-out: Inhibition der Aflatoxin produktion bei 50 μM
[22] = read-out: % Inhibition des Pilzwachstums bei 50 μM
[23] = Fusarium proliferatum growth, OD 620, 5 days, read-out: % Inhibition des Pilzwachstums bei 50 μM
[24] = Fusarium proliferatum, 5 days at 20° C., HPLC-MS/MS, read-out: % Inhibition der FB1 produktion bei 50 μM

| Structure (SMILES) | chromatographic logP [2, 18] | inhibition at 50 µM [6, 19] [%] | inhibition at 50 µM [6, 20] [%] | pest or weed control at 500 ppm [8] [%] | pest or weed control at 500 ppm [9] [%] | inhibition at 50 µM [10, 23] [%] | inhibition at 50 µM [10, 24] [%] | pest or weed control at 250 ppm [11] [%] | chromatographic logP ([2]; LogPA) | pest or weed control at 100 ppm [15] [%] | further results |
| --- | --- | --- | --- | --- | --- | --- | --- | --- | --- | --- | --- |
| Fc1cccc(F)c1-c1nn(C2CCC2)cc1-c1ccncc1 [Compound 8] | 1.56 | – | – | – | – | – | – | – | – | – | pest or weed control at 500 ppm [1]: 92%; pest or weed control at 500 ppm [3]: 94% |
| CC(C)Cn1cc(-c2ccncc2)c(-c2c(F)cccc2F)n1 [Compound 13] | 1.62 | – | – | – | – | – | – | – | – | – | pest or weed control at 500 ppm [1]: 95%; pest or weed control at 500 ppm [4]: 90%; pest or weed control at 500 ppm [3]: 100% |
| CC(c1cccc(Cl)c1)n1cc(-c2ccncc2)c(-c2ccc(F)cc2)n1 (centres unmarked) [Compound 101] | 2.17 | – | – | – | – | – | – | – | – | – | pest or weed control at 250 ppm [5]: 95% |
| N#CCCn1cc(-c2ccncc2)c(-c2ccc(F)cc2)n1 [Compound 146] | 0.81 | 97 | 100 | 95 | 100 | 41 | 100 | – | – | – | inhibition at 50 µM [7, 21]: 100%; inhibition at 50 µM [7, 22]: 99% |
| CCC(=O)Nc1cc(-c2cn(CC(C)C)nc2-c2ccc(F)cc2)ccn1 [Compound 155] | 2.51 | 97 | 100 | 95 | 100 | 97 | 100 | 99 | – | – | inhibition at 50 µM [7, 21]: 100%; inhibition at 50 µM [7, 22]: 100%; pest or weed control at 1000 ppm [12]: 88% |
| CCC(C)n1cc(-c2ccnc(NC(=O)C3CC3)c2)c(-c2ccc(F)cc2)n1 (centres unmarked) [Compound 167] | – | 100 | 99 | 100 | – | – | – | 100 | 2.56 | 89 | pest or weed control at 1000 ppm [13]: 92%; pest or weed control at 1000 ppm [12]: 100%; pest or weed control at 1000 ppm [14]: 100% |
| CC(C)Cn1cc(-c2ccnc(NC(C)C)n2)c(-c2ccc(F)cc2)n1 [Compound 174] | – | – | – | 100 | 100 | – | – | 80 | 2.39 | 100 | pest or weed control at 250 ppm [5]: 93%; pest or weed control at 100 ppm [16]: 70%; pest or weed control at 1000 ppm [13]: 93%; pest or weed control at 1000 ppm [17]: 90% |
| CC(c1cnc(Cl)s1)n1cc(-c2ccncc2)c(-c2ccc(F)cc2)n1 (centres unmarked) [Compound 176] | – | – | – | – | 100 | – | – | – | 1.82 | – | pest or weed control at 250 ppm [5]: 97% |
| CCn1cc(-c2ccnc(NC(=O)COC)c2)c(-c2ccc(F)cc2)n1 [Compound 203] | – | 100 | 100 | 95 | 93 | 99 | 100 | – | 2.2 | – | inhibition at 50 µM [7, 21]: 100%; inhibition at 50 µM [7, 22]: 100% |
| COCCn1cc(-c2ccnc(NC(=O)Cc3ccccc3)c2)c(-c2ccc(F)cc2)n1 [Compound 212] | – | – | – | 96 | 95 | – | – | 98 | 2.6 | 85 | pest or weed control at 100 ppm [16]: 83%; pest or weed control at 1000 ppm [13]: 71%; pest or weed control at 1000 ppm [17]: 71%; pest or weed control at 1000 ppm [14]: 75% |
| O=C(Nc1cc(-c2cn(CC3CC3)nc2-c2ccc(F)cc2)ccn1)C1CC1 [Compound 224] | – | 100 | 92 | 99 | 70 | 99 | 100 | 99 | 2.29 | 71 | pest or weed control at 1000 ppm [17]: 100%; pest or weed control at 1000 ppm [12]: 100%; pest or weed control at 1000 ppm [14]: 100% |

Reference: patent US20110183978A1, “Phenylpyri(mi)dinylazoles” (Bayer CropScience AG, priority 2009, published 2011)
